{
  "source": "patent US6740680B1",
  "about": "“Pharmaceutical compositions to tetrac and methods of use thereof” (Becton Pharma, Inc., priority 1999, dated 2004)",
  "assay_type_in_all_cases": "in vivo, rat",
  "key": {"[1]": {"system": "hypothyroid rats", "test": "Heart weight and heart/body weight in hypothyroid rats infused with Tetrac or T4", "details": "for Heart / Heart/BW (%): hypothyroid rats, mean ± SEM; for Heart: continuous minipump infusion", "protocol": "(§1) Seventy-nine male SIVZ rats were purchased from the breeder (Institut für Labortierkunde des Universität Zürich, Zürich, Switzerland). They were rendered hypothyroid by a single injection of [^131I]Na (100 μCi/rat) and before and throughout the experiment 0.02% 2-mercapto-1-methylimidazol (MMI) was added to drinking water. In order to have an euthyroid control group of similar weight and identical age, 10 rats received only MMI in the drinking water and 2 weeks before implanting the minipumps, MMI was withdrawn. Osmotic minipumps (secretion rate 0.25 μl/hour, duration 14 days) were implanted intraperitoneally (i.p.) 2 months after the injection of [^131I]Na. The minipumps were filled with T4 or Tetrac dissolved in 0.05 N NaOH, 2% BSA and 100,000 cpm [^125I]T4 or [^125I]Tetrac as control of their secretion rates. The infusion lasted 13 days. 0, 1.5, 4.5, 13.5 and 40.5 nmol Tetrac/day/100 g or 0.5, 1.5, 4.5 and 13.5 nmol T4/day/100 g bodyweight (BW) (n=4/dose) were infused. An euthyroid control group was included. The animals were weighed every 2 days. Rats were sacrificed by decapitation and blood was collected and stored at […] until use. Tissues (liver, heart, brown adipose tissue, cerebral cortex and pituitary) were removed rapidly, frozen in liquid nitrogen and stored at […] until use."}, "[2]": {"system": "GH mRNA", "test": "Northern blot, growth hormone mRNA in pituitary", "protocol": "as §1\nTotal RNA extraction and Northern Blot hybridization Total RNA was extracted with the method of Chomczynski and Sacchi (Chomczynski, P. and Sacchi, N. Anal. Biochem. (1987) 162: 156-159). […]\nThe amount of labeled mRNA was quantified by scanning laser densitometry (Phosphorimager, Molecular Dynamics; Sunnyvale, USA). Variations in RNA loading and membrane transfer were corrected by densitometric quantification of a negative photograph of 28S and 18S ribosomal RNA bands from ethidium bromide stained RNA gels. […]"}, "[3]": {"test": "Tissue concentrations of Tetrac after 125I Tetrac injection", "details": "for Calculated tissue concentration of Tetrac: calculated with highest serum Tetrac level (406 pmol/ml)", "protocol": "Monodeiodinase type 1 activity was measured in liver homogenates using 1 μM rT3 and 1 mM DTT with 10 min of incubation, whereas for heart, 0.01 μM rT3 and 10 mM DTT with 1 hour of incubation. Monodeiodinase type 2 activity was measured in brown adipose tissue (BAT) and cerebral cortex using 1 nM rT3, 10 mM DTT and 1 mM propylthiouracil (PTU) with 1 hour of incubation. Protein concentrations were measured by the method of Bradford (Bio-Rad Laboratories GmbH, Munich, Germany) with bovine gammaglobulin as the protein standard. In order to study the effect of circulating Tetrac on the enzyme activities, 2 rats were injected intraperitoneally with 10 μCi ^125I Tetrac and killed 6 hours later. The tissue homogenates were extracted with 3 volumes of ethanol-NH3 (97:3). After 10 minutes centrifugation at 15,000 g, the supernatant was vacuum dried and applied to TLC (Merck 254, Toluol, acetic acid, water: 2:2:1). In order to calculate the tissue concentrations, the highest serum Tetrac levels were used (406 pmol/ml). The calculated tissue concentrations were: liver: 1.9, heart: 2.29 and brain cortex: 0.47 fluol Tetrac/μg protein."}},
  "data": [
    {"compound": "O=C(O)Cc1cc(I)c(Oc2cc(I)c(O)c(I)c2)c(I)c1", "note": "[Tetrac, 3,3′,5,5′-tetraiodothyroacetic acid]", "values": [
      {"measurement": "Increase of heart weight relative to body weight with increasing infusion rates (in words)", "setting": "[1]; compared with T4, p<0.01", "result": "less efficient"},
      {"measurement": "Heart", "setting": "[1]; 1.5 nmol/day/100 g BW", "result": "0.76 ± 0.02", "unit": "g"},
      {"measurement": "Heart", "setting": "[1]; 4.5 nmol/day/100 g BW", "result": "0.83 ± 0.04", "unit": "g"},
      {"measurement": "Heart", "setting": "[1]; 13.5 nmol/day/100 g BW", "result": "0.94 ± 0.03", "unit": "g"},
      {"measurement": "Heart", "setting": "[1]; 40.5 nmol/day/100 g BW", "result": "0.98 ± 0.06", "unit": "g"},
      {"measurement": "Heart/BW (%)", "setting": "[1]; infusion 1.5 nmol/day/100 g BW", "result": "0.31 ± 0.01", "unit": "%"},
      {"measurement": "Heart/BW (%)", "setting": "[1]; infusion 4.5 nmol/day/100 g BW", "result": "0.33 ± 0.02", "unit": "%"},
      {"measurement": "Heart/BW (%)", "setting": "[1]; infusion 13.5 nmol/day/100 g BW", "result": "0.36 ± 0.01", "unit": "%"},
      {"measurement": "Heart/BW (%)", "setting": "[1]; infusion 40.5 nmol/day/100 g BW", "result": "0.39 ± 0.02", "unit": "%"},
      {"measurement": "GH mRNA, Tetrac/T4 (activity of Tetrac in % of T4)", "setting": "[2]", "result": 71, "unit": "%"},
      {"measurement": "GH mRNA, adjusted mean", "setting": "[2]; infused rats, adjusted group mean at the mean Ln (TSH) concentration", "result": 20280, "unit": "arbitrary units"},
      {"measurement": "Concentration of Tetrac in brain cortex homogenates", "setting": "[3]; brain cortex homogenates", "result": "less than 1 fmol/μg protein"},
      {"measurement": "Calculated tissue concentration of Tetrac", "setting": "[3]; brain cortex", "result": 0.47, "unit": "fluol Tetrac/μg protein"},
      {"measurement": "Calculated tissue concentration of Tetrac", "setting": "[3]; heart", "result": 2.29, "unit": "fluol Tetrac/μg protein"},
      {"measurement": "Calculated tissue concentration of Tetrac", "setting": "[3]; liver", "result": 1.9, "unit": "fluol Tetrac/μg protein"}
    ]}
  ]
}
